Measurements from article PMC3758491 (Pesticide biochemistry and physiology, 2013).
Like-named read-outs stand apart in the source and are kept apart here.

Experiments:
murine AChE (mAChE) [1] = biological target: T1, murine AChE (mAChE) (Mus musculus, UniProt P21836); assay: biochemical; assay type: binding
T1 sequence (P21836 32-614): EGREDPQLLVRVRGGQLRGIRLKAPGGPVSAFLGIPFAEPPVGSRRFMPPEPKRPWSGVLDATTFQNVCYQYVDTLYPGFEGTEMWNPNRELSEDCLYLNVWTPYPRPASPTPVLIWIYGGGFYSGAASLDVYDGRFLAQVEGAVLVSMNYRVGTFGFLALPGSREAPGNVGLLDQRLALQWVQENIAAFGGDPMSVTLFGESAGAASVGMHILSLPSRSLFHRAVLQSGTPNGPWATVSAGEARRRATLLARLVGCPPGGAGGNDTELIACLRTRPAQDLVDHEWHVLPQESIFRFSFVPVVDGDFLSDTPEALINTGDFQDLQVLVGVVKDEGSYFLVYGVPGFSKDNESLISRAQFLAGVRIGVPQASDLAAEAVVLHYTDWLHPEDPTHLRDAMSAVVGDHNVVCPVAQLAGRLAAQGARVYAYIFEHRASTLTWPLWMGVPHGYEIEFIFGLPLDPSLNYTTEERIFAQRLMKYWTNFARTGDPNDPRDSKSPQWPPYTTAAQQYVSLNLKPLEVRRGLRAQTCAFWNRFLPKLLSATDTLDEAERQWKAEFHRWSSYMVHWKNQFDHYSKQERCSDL

murine AChE (mAChE) [2] = biological target: T1, murine AChE (mAChE); assay: biochemical
murine AChE (mAChE) [3] = biological target: T1, murine AChE (mAChE); assay: Equilibrium binding of TFT to mAChE
human recombinant AChE = conditions: cited from earlier work
[4] = IC50 values (Mean ± SEM), Reduction of TFT Fluorescence
[5] = IC50 values (Mean ± SEM), Reduction of AChE activity
[6] = read-out: IC50 values (Mean ± SEM), Reduction of TFT Fluorescence, pH 7.4
[7] = read-out: IC50 values (Mean ± SEM), Reduction of AChE activity, pH 7.4

CNC(=O)Oc1cccc2c1OC(C)(C)O2 [Bendiocarb, bendiocarb]
Ratio = IC50 TFT assay/IC50 Ellman assay (murine AChE (mAChE) [1]): 0.4 | IC50 (murine AChE (mAChE) [1]; [4]): 0.02 µM | IC50 (murine AChE (mAChE) [2]; [5]): 0.046 µM

C=CC[N+](C)(C)c1ccc(CCC(=O)CCc2ccc([N+](C)(C)CC=C)cc2)cc1.[Br-].[Br-] [BW284C51, BW284c51]
Ratio = IC50 TFT assay/IC50 Ellman assay (murine AChE (mAChE) [1]): 1.9 | IC50 (murine AChE (mAChE) [1]; [6]): 0.0083 µM | IC50 (murine AChE (mAChE) [2]; [7]): 0.0044 µM

CCC(C)CSc1ccccc1OC(=O)NC (stereo not shown) [Compound 2, 2-(2-methylbutylthio)phenyl methylcarbamate]
Ratio = IC50 TFT assay/IC50 Ellman assay (murine AChE (mAChE) [1]): 0.9 | IC50 (murine AChE (mAChE) [1]; [4]): 8.9 µM | IC50 (murine AChE (mAChE) [2]; [5]): 10.3 µM

COc1cc2c3cc1Oc1cc(ccc1O)C[C@@H]1c4c(cc(OC)c(O)c4Oc4ccc(cc4)C[C@@H]3N(C)CC2)CC[N+]1(C)C [Tubocurarine, d-tubocurarine]
Ratio = IC50 TFT assay/IC50 Ellman assay (murine AChE (mAChE) [1]): 0.7 | IC50 (murine AChE (mAChE) [1]; IC50, TFT assay): 50 to 70 µM | IC50 (murine AChE (mAChE) [1]; [4]): 50 µM | IC50 (murine AChE (mAChE) [2]; IC50, Ellman assay): 50 to 70 µM | IC50 (murine AChE (mAChE) [2]; [5]): 69 µM

benzylpiperidine
Ratio = IC50 TFT assay/IC50 Ellman assay (murine AChE (mAChE) [1]): 0.95 | maximum percentage reduction of total TFT fluorescence (murine AChE (mAChE) [1]): around 30% | IC50 (murine AChE (mAChE) [1]; [6]): 159 µM | IC50 (murine AChE (mAChE) [1]; read-out: potency (IC50) for reducing thioflavin-T fluorescence): 159 µM | IC50 (murine AChE (mAChE) [2]; [7]): 167 µM

CC[N+](C)(C)c1cccc(O)c1 [Edrophonium, edrophonium]
Ratio = IC50 TFT assay/IC50 Ellman assay (murine AChE (mAChE) [1]): 0.33 | fold lower IC50 in TFT assay than in Ellman assay (murine AChE (mAChE) [1]): 3 fold | maximum percentage reduction of total TFT fluorescence (murine AChE (mAChE) [1]): around 30% | IC50 (murine AChE (mAChE) [1]; [4]): 1.12 µM | IC50 (murine AChE (mAChE) [2]; [5]): 3.43 µM

CNC(=O)Oc1ccccc1OC(C)C [Propoxur, propoxur]
Ratio = IC50 TFT assay/IC50 Ellman assay (murine AChE (mAChE) [1]): 0.13 | fold lower IC50 in TFT assay than in Ellman assay (murine AChE (mAChE) [1]): 7.7 fold | IC50 (murine AChE (mAChE) [1]; [4]): 0.06 µM | IC50 (murine AChE (mAChE) [2]; [5]): 0.466 µM

CC[n+]1c(-c2ccccc2)c2cc(N)ccc2c2ccc(N)cc21 [Ethidium Bromide, ethidium bromide]
Ratio = IC50 TFT assay/IC50 Ellman assay (murine AChE (mAChE) [1]): 4.1 | TFT/Ellman IC50 ratio (murine AChE (mAChE) [1]): around four times higher | IC50 (murine AChE (mAChE) [1]; [4]): 16 µM | IC50 (murine AChE (mAChE) [2]; [5]): 4 µM

CNC(=O)Oc1cccc(C(C)(C)C)c1 [Compound 1, 3-tert-butylphenyl methylcarbamate]
Ratio = IC50 TFT assay/IC50 Ellman assay (murine AChE (mAChE) [1]): 0.4 | IC50 (murine AChE (mAChE) [1]; [4]): 0.025 µM | IC50 (murine AChE (mAChE) [2]; [5]): 0.062 µM

Cc1nc(N(C)C)nc(OC(=O)N(C)C)c1C [Pirimicarb, pirimicarb]
Ratio = IC50 TFT assay/IC50 Ellman assay (murine AChE (mAChE) [1]): 0.6 | IC50 (murine AChE (mAChE) [1]; [4]): 0.454 µM | IC50 (murine AChE (mAChE) [2]; [5]): 0.738 µM

Cc1ccc2c(c1)sc(-c1ccc(N(C)C)cc1)[n+]2C [TFT, thioflavin-T]
Kd (murine AChE (mAChE) [3]): 1.4 ± 0.2 µM | increase of TFT fluorescence in the presence of mAChE over free solution (murine AChE (mAChE) [3]; 10 uM TFT): 1.96 fold | Bmax, maximum specific TFT fluorescence in the presence of mAChE (murine AChE (mAChE) [3]; mean ± SEM, n = 7): 562 ± 23 fluorescent units | Kd (human recombinant AChE; read-out: Kd of TFT, ref De Ferrari et al. [17]): 0.89 µM | Kd (human recombinant AChE; read-out: Kd of TFT, ref Sultatos and Kaushik [13]): 0.36 µM

CNC(=O)O/N=C/C(C)(C)SC [Aldicarb, aldicarb]
Ratio = IC50 TFT assay/IC50 Ellman assay (murine AChE (mAChE) [1]): 0.9 | IC50 (murine AChE (mAChE) [1]; [4]): 0.565 µM | IC50 (murine AChE (mAChE) [2]; [5]): 0.645 µM

CC[N+](C)(CC)CCC[n+]1c(-c2ccccc2)c2cc(N)ccc2c2ccc(N)cc21 [Propidium Iodide, propidium iodide]
Ratio = IC50 TFT assay/IC50 Ellman assay (murine AChE (mAChE) [1]): 1.0 | TFT fluorescence remaining after adding propidium iodide (murine AChE (mAChE) [1]): 0% | IC50 (murine AChE (mAChE) [1]; IC50, TFT assay): 0.7 µM | IC50 (murine AChE (mAChE) [1]; [4]): 0.67 µM | IC50 (murine AChE (mAChE) [2]; IC50, Ellman assay): 0.7 µM | IC50 (murine AChE (mAChE) [2]; [5]): 0.662 µM
